Laboratory results taken from patent US8846898B2, “Phosphinoamidite carboxylates and analogs thereof in the synthesis of oligonucleotide having reduced internucleotide charge” (Lieure Cornu LLC, priority 2000, dated 2014).
[pace] = phosphonoacetate internucleotide linkage

Experiments:
[1] = molecular target: E. coli RNaseH1 (Escherichia coli, UniProt P0A7Y4); test: Hydrolysis of RNA heteroduplexes with E. coli RNaseH1; type: biochemical; conditions: 5′-32P RNA, two units RNaseH1, four hours at 37° C.
[2] = test system: Phosphodiesterase I from Crotalus adamanteu (snake venom phosphodiesterase)
[3] = molecular target: DNase I (Bos taurus, UniProt P00639)
Chain of DNase I (P00639 23-282): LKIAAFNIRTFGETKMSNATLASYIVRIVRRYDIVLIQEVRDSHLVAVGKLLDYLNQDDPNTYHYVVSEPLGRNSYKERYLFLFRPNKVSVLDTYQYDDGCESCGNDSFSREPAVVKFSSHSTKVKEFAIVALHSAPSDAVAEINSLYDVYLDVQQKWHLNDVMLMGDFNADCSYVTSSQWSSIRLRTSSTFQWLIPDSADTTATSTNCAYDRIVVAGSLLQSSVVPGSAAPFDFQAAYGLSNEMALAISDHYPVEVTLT
Protocol: Radiolabeling of Oligodeoxynucleotides: ODNs were 5′ end-labeled using γ-^32P ATP and T4 polynucleotide kinase (Wu et al., “Purification and Sequence Analysis of Synthetic Oligodeoxyribonucleotides,” in Oligonucleotide Synthesis: A Practical Approach, Gait, Ed. (Oxford University Press, 1990)). […] The radiolabeled ODNs were purified by gel electrophoresis and ethanol precipitation.
Endonuclease Stability: Endonuclease digestion experiments were carried out using DNase I (Boehringer-Mannheim). The assays were performed using a mixture of oligodeoxynucleotide labeled with ^32P at the 5′-end (100,000 cpm) and unlabeled oligodeoxynucleotide (40 pmol) in a buffer containing 40 mM Tris-HCl, pH 7.5, 6 mM MgCl2. Slight excess of the complementary DNA strand (1.2 eq.) was added and the mixture was heated to 95° C. for 5 minutes then chilled on ice for 30 minutes. Enzyme was added to a final concentration of 1 unit/μl (40 μl total reaction volume). The reaction mixture was overlayed with 25 μl of mineral oil and incubated at 37° C. Aliquots (3.5 μl) were removed and quenched by adding 7M urea in TBE buffer (12 μl) and heating to 95° C. for 5 minutes. […]
The mixtures were heated to 95° C. for 5 minutes followed by slow cooling and incubation on ice for 30 minutes. The mixture was equilibrated to room temperature, DNase I added, and the reaction monitored as a function of time. […]

Chain of E. coli RNaseH1 (P0A7Y4 whole entry): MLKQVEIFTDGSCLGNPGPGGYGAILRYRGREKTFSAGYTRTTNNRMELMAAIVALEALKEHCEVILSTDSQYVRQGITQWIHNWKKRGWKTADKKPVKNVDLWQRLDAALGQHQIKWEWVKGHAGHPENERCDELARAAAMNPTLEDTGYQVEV

Substance | RNA degraded (converted to hydrolysis products) in the presence of the oligonucleotide and RNaseH1 [1] | degradation / hydrolysis products observed on exposure to SVP [2] | degradation / hydrolysis products observed on incubation with DNase I [3] | time to complete degradation by DNase I [3] [h]
phosphonoacetate ODN: 18-mer mixed sequence ODN 5′-CTCAAGTGGGCTGGTGAC-3′ containing internucleotide phosphonoacetate linkages (DNA, all [pace], methylation of C not given here) | approximately 66% | No detectable degradation products | no degradation products | 
phosphodiester ODN: 18-mer mixed sequence ODN 5′-CTCAAGTGGGCTGGTGAC-3′ containing internucleotide phosphodiester linkages (unmodified DNA) (unmodified DNA) [reference compound] |  |  |  | ≤ 1
